# Measurements from US20230144023A1, “USE OF BUTYLPHTHALIDE AND DERIVATIVE THEREOF” (CSPC NBP PHARMACEUTICAL CO., LTD, priority 2020, published 2023).
# Read-outs that look alike come from different tables or passages of the source.
# Legend:
# [1] = system: bortezomib chemotherapy-induced peripheral neuropathy; test: Bortezomib chemotherapy-induced peripheral neuropathy in rats (Example 6); assay type: in vivo, SD (Sprague Dawley) rats; conditions: compared with the model group
# Procedure: (The modeling and administration time are shown in FIG. 11. The animal grouping, the administration method, and the doses are detailed in Table 14). […] (2) Thermal pain threshold: measurements were performed on days 0, 7, 14, and 21. Method: IITC Life Science Electronic Von Frey Anesthesio meter was used and the intensity of the light source was adjusted to obtain a thermal pain threshold baseline of about 3-6 s. […] The rats were placed in a plastic compartment on a glass plate, to make the planta centers of the rats be exposed to the light source. […] (3) Mechanical Stimulus Pain Threshold: Measurements were Performed on Days −1, 6, 13, and 20. Method: the rats were placed in a plastic compartment on a wire mesh, left to stand still for 15 min, stimulated using a stimulation probe with a diameter of 0.4 mm of the IITC Life Science Electronic Von Frey Anesthesio meter at the planta centers of the rats by gradually increasing the force until reflexive withdrawal of the rats.
# [2] = system: MM.1S, Jeko-1, HT29, A549, DU145; test: In vitro proliferation of 5 cell strains, summary statements (Example 7); assay type: cell-based, Human; conditions: monotherapy of NBP; 5 cell strains
# Procedure: Different drug concentration gradients were set for each group.
# Monotherapy group of NBP: NBP was 2× serially diluted from an initial concentration of 480 μM to 8 concentrations: 480, 240, 120, 60, 30, 15, 7.5, and 3.75 μM, respectively.
# The action time of the drug was 72 h.
# 3 replicate wells were set for each concentration of each drug, and blank wells (only culture medium was present, and no tumor cells were inoculated) and normal wells (a culture medium inoculated with tumor cells, drug concentration was 0) were set.
# HT29 = test: In vitro tumor cell proliferation, MTT (Example 7); conditions: Homo sapiens, HT-29, 72 h
# Procedure: (§1) This experiment includes a monotherapy group of Bortezomib, a combined therapy group (Bortezomib/NBP), and a monotherapy group of NBP. Different drug concentration gradients were set for each group.
# (§2) Monotherapy group of Bortezomib: (1) MM.1S, Jeko-1, and HT29 cells: Bortezomib was 1.5× serially diluted from an initial concentration of 20 nM to 8 concentrations: 20, 13.33, 8.89, 5.93, 3.95, 2.63, 1.76, and 1.17 nM, respectively; (2) A549 cells: Bortezomib was 2×serially diluted from an initial concentration of 200 nM to 8 concentrations: 200, 100, 50, 25, 12.5, 6.25, 3.13, and 1.56 nM, respectively; and (3) DU145 cells: Bortezomib was 2× serially diluted from an initial concentration of 100 nM to 8 concentrations: 100, 50, 25, 12.5, 6.25, 3.13, 1.56, and 0.78 nM, respectively.
# (§3) A certain number of conventionally cultured cells in logarithmic growth phase were inoculated in a 96-well plate with 100 μL per well. […] For adherent cells HT29, A549, and DU145, the above drugs were added 24 h after adherence. 3 replicate wells were set for each concentration of each drug, and blank wells (only culture medium was present, and no tumor cells were inoculated) and normal wells (a culture medium inoculated with tumor cells, drug concentration was 0) were set. The drugs functioned for 72 h, then MTT working solution (5 mg/mL) was added at 20 μL per well; after functioning at 37° C. for 4 h, the supernatant was removed, 150 μL of DMSO (analytically pure) was added; the mixture was fully mixed using a microplate oscillator, the plate was wiped clean, and the optical density (OD) at 550 nm was measured using a microplate reader.
# (§4) The cell growth inhibition rate was computed using the following equation:
# (§5) Inhibition rate (%)=(OD valuenormal well−OD valueadministration well)/(OD valuenormal well−OD valueblank well)×100%
# (§6) Based on the inhibition rate of each concentration, the median inhibitory concentration IC50 of the drug was computed using SPSS19.0.
# DU145 = test: In vitro tumor cell proliferation, MTT (Example 7); conditions: Homo sapiens, DU-145, 72 h
# Procedure: as §1, §2, §3, §4, §5, §6
# [3] = read-out: Inhibition rate, First dose
# [4] = read-out: Inhibition rate, Mean ± SD
# [5] = read-out: Inhibition rate, Second dose
# [6] = read-out: Inhibition rate, Third dose
compound,measurement,setting,value
"CCCCC1OC(=O)c2ccccc21 (stereo not drawn) [NBP, 3-n-butylphthalide]",mechanical stimulus pain threshold (decrease in model rats),"[1]; day 20, NBP 10 and 30 mg/kg bid",significantly reversed
same,body weights of the rats,"[1]; day 21, NBP 3, 10 and 30 mg/kg bid gavage",not obviously changed
same,thermal pain threshold (decrease in model rats),"[1]; day 21, NBP 3, 10 and 30 mg/kg bid",significantly reversed
same,inhibitory effect on in vitro proliferation,[2],does not have obvious inhibitory effect
same,inhibition at 30 µM,HT29; [3],9.98%
same,inhibition at 30 µM,HT29; [4],10.7 ± 2.79%
same,inhibition at 30 µM,HT29; [5],8.27%
same,inhibition at 30 µM,HT29; [6],13.7%
same,inhibition at 30 µM,DU145; [3],-2.22%
same,inhibition at 30 µM,DU145; [4],4.03 ± 5.88%
same,inhibition at 30 µM,DU145; [5],9.44%
same,inhibition at 30 µM,DU145; [6],4.87%
